Test [1] concerns the target T1, USP8 Rhod domain (Homo sapiens, UniProt P40818).
T1 construct: USP8 Rhod (174–317) (UniProt: P40818); GST (cleaved yes); made in house; host or cells: Escherichia coli BL21-Gold (DE3)
T1 sequence (P40818 174-317): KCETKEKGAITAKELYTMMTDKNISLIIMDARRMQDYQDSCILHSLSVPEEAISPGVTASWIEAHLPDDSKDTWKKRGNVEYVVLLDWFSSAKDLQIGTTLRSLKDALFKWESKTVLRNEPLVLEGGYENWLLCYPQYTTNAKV
Kind of test: SPOT array of predicted peptides from known interactors, USP8 Rhod domain. It is filed as binding. The conditions noted are these: for Percentage (%) normalized to highest intensity and corrected for background: Rhod-Peptide screening, SPOT array of predicted peptides, KIAA1614 positive control = 100; for SPOT intensity in words: GST-tagged Rhod 150 µM, positive control KIAA1614_568 − 583, array of 42 predicted peptides. The text has this:
The results therefore support that the USP8 Rhod domain binds to two distinct types of motifs (Fig. 4A, B). We used the motifs to scan for matching motifs in previously reported interactors using the SLiMSearch algorithm (Supplementary Table S8 A). As there was no clear match for the TET3-type motif except from only one hit, we focused on the KIAA1614-type motif. […] Both TP63 and USP21 are previously reported USP8 substrates, and the interactions may potentially contribute to substrate targeting. […] As the SHANK3 peptides (351-[…]−365 and 392-[…]−406) are closely located in the primary structure of SHANK3, it is tempting to speculate that both motifs contribute to the interactions between the full-length proteins by increasing the local concentration of binding motifs. […] Taken together, we find that the USP8 Rhod domain is a peptide binding domain that can be bound by peptides of two distinct types of motifs, with the Rx[LI]xGxxxPxxL motif and variants thereof being found in known USP8 substrates.
SPOT array alanine scanning of peptides was designed, and cellulose-bound peptides were synthesized using Fluorenylmethyloxycarbonyl (Fmoc) solid phase synthesis with a MultiPep synthesizer (INTAVIS Peptide Services, Tübingen, Germany). The membranes of predicted peptides were purchased by JPT Peptide Technologies (Berlin, Germany). The membranes were incubated with blocking buffer containing 5% skim milk in TBST (50 mM Tris, 150 mM NaCl pH 7.5, 0.05% Tween-20) for two hours at room temperature. The blocked membranes were incubated with GST-tagged proteins (100 µM for MIT domain and 150 µM for the Rhodanese domain) in blocking buffer overnight at 4 °C. After rinsed with TBST the membranes were incubated with HRP-conjugated anti-GST antibody (Cytiva, RPN1236; 1:3000 dilution) in blocking buffer for 1 h at 4 °C and subsequently rinsed with TBST to remove any excess antibody. The ECL reagent (Clarity Max Western ECL substrate, 1705062, BioRad) was used for chemiluminescence read-out with the ChemiDoc Imaging system (BioRad). The images were analysed with Fiji (ImageJ2 version 2.9.0). SLiMSearch4 was used to design the peptide arrays with known interactors predicted to contain the motifs. The background signal intensity was subtracted, and the corrected signal intensities were normalized to the positive control and presented as percentage.

Test [2] has as its system USP8 MIT domain. Kind of test: SPOT array of predicted peptides from known interactors, USP8 MIT domain. As to conditions: for Percentage (%) normalized to highest intensity and corrected for background: SPOT array, GST-tagged MIT 100 µM, overnight 4 °C, chemiluminescence, highest intensity = DNAJB6; for Percentage (%): Supplementary Fig. 4B, normalized to the highest intensity and corrected for background. It is filed as binding, human. An excerpt: To further assess the SLiM-based interactions of the USP8 MIT domain, we designed a peptide array tiling 24 potential binding sites in previously reported USP8 interactors. We used SLiMSearch to search for peptides that contain shorter or longer matches to the motif (Supplementary Table S4A). […] The DNAJB6_118 - 130 peptide was predicted as a binder based on a partial DFx{2,3}R motif. The DNAJB6-USP8 interaction is supported by previous GST-pulldown experiments and colocalization of the two proteins in male mouse germ cells, and the interaction is thought to be of importance to the protein quality control to yield functional spermatozoa. In the case of the CDH1_863 - 877 peptide it was predicted as USP8 MIT ligand based on the presence of an RFxxL motif. The previous support of the CDH1-USP8 interaction is based on proximity labelling mass spectrometry, and our results thus provide evidence for a binary interaction between the two proteins and define a binding site. To confirm that the motifs used to predict the interactions were of importance for binding we designed an alanine scanning peptide SPOT array analysis of the DNAJB6_118 - 130 and the CDH1_863 - 877 peptides. […] In summary, we find that the USP8 MIT domain binds to a MIM1-like motif that can be expressed by [[…]], as well as degenerate variants thereof. […] The membranes of predicted peptides were purchased by JPT Peptide Technologies (Berlin, Germany). The membranes were incubated with blocking buffer containing 5% skim milk in TBST (50 mM Tris, 150 mM NaCl pH 7.5, 0.05% Tween-20) for two hours at room temperature. The blocked membranes were incubated with GST-tagged proteins (100 μM for MIT domain and 150 μM for the Rhodanese domain) in blocking buffer overnight at 4 °C. After rinsed with TBST the membranes were incubated with HRP-conjugated anti-GST antibody (Cytiva, RPN1236; 1:3000 dilution) in blocking buffer for 1 h at 4 °C and subsequently rinsed with TBST to remove any excess antibody. The ECL reagent (Clarity Max Western ECL substrate, 1705062, BioRad) was used for chemiluminescence read-out with the ChemiDoc Imaging system (BioRad). The images were analysed with Fiji (ImageJ2 version 2.9.0). […] used to design the peptide arrays with known interactors predicted to contain the motifs. The background signal intensity was subtracted, and the corrected signal intensities were normalized to the positive control and presented as percentage.

Test [3] has as its system USP8 MIT domain. Kind of test: Proteomic peptide-phage display (ProP-PD) selection against USP8 MIT domain. It is filed as binding, human. Details: Confidence: scale not given here. The procedure:
We explored the peptide-binding of the USP8 MIT domain by using the purified GST-tagged MIT domain as bait in proteomic peptide-phage display (ProP-PD) selections and a library designed to display the predicted unstructured regions of the human proteome. The peptide-coding regions of the binding-enriched phage pools were analysed by next-generation sequencing (NGS). After filtering for high confidence ligands, ten ligands remained (Fig. 1B; Supplementary Table S1). None of the ten identified protein-protein interactions had been previously reported, based on comparison with the information available in IntAct, HIPPIE and BioGrid (February 2025). Of the USP8 interacting proteins found, the D site-binding protein (DBP), which is a clock-controlled transcription factor, appears as an interesting ligand as USP8 has been reported to be involved in controlling the circadian rhythm. Also, the CCDC88A-encoded protein Girdin is an interactor of potential biological relevance as it is a scaffolding protein involved in the EGFR pathway which USP8 is known to regulate. At the motif level, there was no shared consensus motif among the ten peptide ligands. However, by manual inspection we noticed that four of the peptides contained a shared [LI]xxR[IY]xxL sequence, which appears to be a variation of the [DE]xxLxxRLxxL[KR] MIM1 motif described in the Eukaryotic Linear Motif resource (ELM) (Fig. 1B). We performed a SPOT array alanine scanning analysis in which peptides are synthesised on a membrane, and where each amino acid position of the peptide is mutated to alanine (or glycine if alanine is in the wild type peptide) to evaluate the effect of the amino acid residues in binding. We tested two peptides containing the apparent MIM1-like motif, one from Girdin (Girdin1192 − 1207) and one from the histone-lysine N-methyltransferase SETD1B (SETD1B492 − 507). […] AlphaFold3 (AF3) modelling of the four peptides with the variant MIM1 motif and the MIT domain docked the peptides with high confidence (ipTM scores: HIVEP1_741 − 756: 0.87, Girdin1192 − 1207: 0.85, MLPH481 − 496: 0.82, SETD1B492 − 507: 0.75) at the expected MIM1 binding pocket (Fig. 1D). […] However, the USP8 MIT selection was dominated (more than 94% of NGS counts) by two peptides that lack an apparent MIM1 motif. The two peptides were from the EF-hand calcium-binding domain-containing protein 12 (EFCAB12_1 − 16: […]) and from DBP (DBP116 − 131: […]) (Fig. 1B). […] In comparison to this, the EFCAB12_1 − 16 peptide shares a potential Dx[YF]xxxH[SG] motif with the DBP116 − 131 (Fig. 1B). […] The AF3 model of DBP116 − 131 peptide supports the interaction of D120 of the DBP116 − 131 peptide with the residues K74 and N71 in the MIT domain (Fig. 1G), emphasizing the significance of the aspartic acid at this position. […] Of them, two peptides (SYNE2_853 − 868 and PKNOX1_56 − 71) where placed in the same binding site as the Girdin and DBP peptides with high confidences by AF3 modelling (ipTM 0.92 and 0.74; Supplementary Fig. S3).
Four rounds of phage selections were carried out using the second generation human disorderome library or the constructed deep mutational scanning library. At least three individual replicates were used for each bait protein. 10 µg of GST-tagged proteins or GST control (diluted in PBS from the stock of proteins kept in the purification elution buffer) were immobilized in 100 µL PBS on a 96-well MaxiSorp (Nunc) plate overnight at 4 °C. The plates were incubated with blocking buffer (with 0.5% BSA in PBS) for 1 h at 4 °C followed by washing with 0.05% Tween 20 in PBS four times. The naïve phage library (10^11 CFU) was diluted in 1/5th volume PEG/NaCl (20% PEG-8000, 0.4 M NaCl) and 1X PBS, incubated on ice for 10 min and centrifuged at 10,000 [drawing 3] g for 10 min. The pellet was resuspended in the volume of PBS (100 µL/ well). […]

Here are results for 22 sequences from PMC12057046, “Elucidation of short linear motif-based interactions of the MIT and rhodanese domains of the ubiquitin-specific protease 8” (Biology Direct, 2025).

For the sequence GKPPTPGVLMVHPPP, the “Percentage (%) normalized to highest intensity and corrected for background” value (from here on “Percentage (%) normalized”) in test [1] is listed as -1.22%.

For SLRSLPHQLLLQRLQ [SHANK3 peptide], the “SPOT intensity in words” value in test [1] was “Weaker signals”.

For the sequence AKPPGPGVLMIHPPG, in test [1], the “Percentage (%) normalized” value is -1.54%.

As for MAQALPWLLLWMGAG, in test [1], the “Percentage (%) normalized” value is 1.42%.

Take SYAKRRRLAGPSGLA [SHANK3 peptide]: the “SPOT intensity in words” value in test [1] is listed as “Weaker signals”.

Take FDQPHPQGLLPCQPQ: the “Percentage (%) normalized” value in test [1] is listed as 4.4%.

In the case of SRSLSPTRLLSLPPD, the “Percentage (%) normalized” value in test [1] is 6.64%.

Consider SSTSTRHLQGVEFEM, for which the “Percentage (%) normalized” value in test [1] is -1.73%.

Consider PEKGARSLAGPPPHF, for which, in test [1], the “Percentage (%) normalized” value is recorded as -1.37%.

On to SLRSLPHQLLLQRLQ, for which the “Percentage (%) normalized” value in test [1] is listed as 7%.

In the case of SCISEWEQKIPTYN, the “Percentage (%) normalized” value in test [1] is 6%.

Regarding HEFSSPSHLLRTPSS, in test [1], the “Percentage (%) normalized” value is reported as 45%.

In the case of PGPPYPPQLMTPSKL, the “Percentage (%) normalized” value in test [1] is -0.836%.

In the case of TRKFSSPPPLSITK, the “Percentage (%) normalized” value in test [1] is 6%.

Consider “APPSLLLLLLAQLV [FZD5, Frizzled-5 peptide]”, for which, in test [2], the “Percentage (%) normalized” value was 24%; the “Percentage (%)” value is 24%.

Regarding “SGETDLKLLEESIA [NR3C1, Glucocorticoid receptor peptide]”, in test [2], the “Percentage (%) normalized” value is -4.47%; the “Percentage (%)” value is -4%.

Turning to “SQKELESYMMRAQQLL [SYNE2_853 − 868, Nesprin-2 peptide]”, in test [2], the “Percentage (%) normalized” value is on record as -4%; the “Percentage (%)” value is -4%. Besides, the “NGS counts (%)” value in test [3] (ProP-PD, human disorderome library, GST-tagged MIT bait, four rounds of selection, percent of NGS counts associated with each peptide, Fig. 1B) was found to be 0.43%. In test [3] (Total NGS counts), the max_counts is listed as 21. Besides, the Confidence in test [3] (calculated based on four metrics: overlapping peptides, replicated peptides, motif match, peptide counts) is on record as 2. In test [3] (fraction of NGS counts for a selection), this sequence displayed a Counts of 0.0007925. Further, the Promiscuity in test [3] (number of baits selections where the peptide has been observed, calculated on the domain level) is 1. Besides, the Replicates in test [3] (number of screens against the bait protein in which the peptide has been found) stood at 3. In addition, the Specificity in test [3] (proportion for the current bait of the total NGS read counts of the peptide for all baits screened with this library) is reported as 1.

For “RFVVALVLLNVAAA [TGOLN2, Trans-Golgi network integral membrane protein 2 peptide]”, in test [2], the “Percentage (%) normalized” value is recorded as -4.72%; the “Percentage (%)” value was -5%.

With “MVSWGRFICLVVVTM [FGFR2, Fibroblast growth factor receptor 2 peptide]”, in test [2], the “Percentage (%) normalized” value was 2.8%; the “Percentage (%)” value was 3%.

As to “RPHDIFRQRKQNT [VIRMA, Protein virilizer homolog peptide]”, in test [2], the “Percentage (%) normalized” value is on record as 6.6%; the “Percentage (%)” value is given as 7%.

For the sequence “SEENGLPLLVLPPP [SHANK1 A11, SHANK1 peptide, array position A11]”, in test [2], the “Percentage (%) normalized” value is recorded as -5.69%; the “Percentage (%)” value is recorded as -6%.

As to “MDLLFGRRKTPEELL [CHMP2A, Charged multivesicular body protein 2a peptide]”, in test [2], the “Percentage (%) normalized” value is -8%; the “Percentage (%)” value is listed as -8%.
